Data reported in the supplement of paper PMC10307832.

What was measured:
Experiment in all cases: relative viability (nuclei count vs DMSO), 5 days (fraction); higher = more cells survive
Shikonin + AZD7762 = compound: CC(C)=CC[C@@H](O)C1=CC(=O)c2c(O)ccc(O)c2C1=O [Shikonin] + NC(=O)Nc1cc(-c2cccc(F)c2)sc1C(=O)N[C@H]1CCCNC1 [AZD7762] (partner 0.2 µM)
Outline: (§1)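 Lung cancer cell lines in 1536-well plates got either a single drug or a fixed anchor-drug dose together with five library-drug doses (not always all listed) in √10 steps, by pin tool, on the day after seeding. Nuclei were counted after 5 days, and relative viability is the treated-to-vehicle ratio of nuclei counts. Values are medians of duplicate plates.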

Shikonin + Vorinostat = compound: CC(C)=CC[C@@H](O)C1=CC(=O)c2c(O)ccc(O)c2C1=O [Shikonin] + O=C(CCCCCCC(=O)Nc1ccccc1)NO [Vorinostat] (partner 1 µM)
Outline: as §1

[1] = compound: CC(C)N(CCCNC(=O)Nc1ccc(C(C)(C)C)cc1)C[C@H]1O[C@@H](n2ccc3c(N)ncnc32)[C@H](O)[C@@H]1O + COc1cc2c(Oc3ccc(NC(=O)C4(C(=O)Nc5ccc(F)cc5)CC4)cc3F)ccnc2cc1OCCCN1CCOCC1 [Foretinib] (partner 0.25 µM)
Outline: as §1

[2] = compound: CC(C)N(CCCNC(=O)Nc1ccc(C(C)(C)C)cc1)C[C@H]1O[C@@H](n2ccc3c(N)ncnc32)[C@H](O)[C@@H]1O + C[C@@H](Oc1cc(-c2cnn(C3CCNCC3)c2)cnc1N)c1c(Cl)ccc(F)c1Cl [Crizotinib] (partner 1 µM)
Outline: as §1

Cell Line: HCC-827
- relative viability (Shikonin + AZD7762; first compound 0.01 µM): 0.203
- relative viability (Shikonin + AZD7762; first compound 0.1 µM): 0.216
- relative viability (Shikonin + AZD7762; first compound 0.3162 µM): 0.2
- relative viability (Shikonin + AZD7762; first compound 1 µM): 0.197
- relative viability (Shikonin + Vorinostat; first compound 0.01 µM): 0.831
- relative viability (Shikonin + Vorinostat; first compound 0.1 µM): 0.908
- relative viability (Shikonin + Vorinostat; first compound 0.3162 µM): 1.06
- relative viability (Shikonin + Vorinostat; first compound 1 µM): 0.855
- relative viability ([1]; first compound 0.08 µM): 0.907
- relative viability ([1]; first compound 0.253 µM): 1.07
- relative viability ([1]; first compound 2.53 µM): 0.989
- relative viability ([1]; first compound 8 µM): 0.91
- relative viability ([2]; first compound 0.08 µM): 0.883
- relative viability ([2]; first compound 0.253 µM): 0.952
- relative viability ([2]; first compound 2.53 µM): 0.949
- relative viability ([2]; first compound 8 µM): 0.881

Cell Line: HOP-62
- relative viability (Shikonin + AZD7762; first compound 0.01 µM): 0.949
- relative viability (Shikonin + AZD7762; first compound 0.1 µM): 0.648
- relative viability (Shikonin + AZD7762; first compound 0.3162 µM): 0.584
- relative viability (Shikonin + AZD7762; first compound 1 µM): 0.646
- relative viability (Shikonin + Vorinostat; first compound 0.01 µM): 0.663
- relative viability (Shikonin + Vorinostat; first compound 0.1 µM): 0.667
- relative viability (Shikonin + Vorinostat; first compound 0.3162 µM): 0.739
- relative viability (Shikonin + Vorinostat; first compound 1 µM): 0.558
- relative viability ([1]; first compound 0.08 µM): 0.974
- relative viability ([1]; first compound 0.253 µM): 1.23
- relative viability ([1]; first compound 0.8 µM): 1.02
- relative viability ([1]; first compound 2.53 µM): 1.06
- relative viability ([1]; first compound 8 µM): 0.945
- relative viability ([2]; first compound 0.08 µM): 0.926
- relative viability ([2]; first compound 0.253 µM): 0.982
- relative viability ([2]; first compound 0.8 µM): 0.882
- relative viability ([2]; first compound 2.53 µM): 0.748
- relative viability ([2]; first compound 8 µM): 0.915

Cell Line: IA-LM
- relative viability (Shikonin + Vorinostat; first compound 0.01 µM): 1.08
- relative viability (Shikonin + Vorinostat; first compound 0.1 µM): 0.512
- relative viability (Shikonin + Vorinostat; first compound 0.3162 µM): 1.07
- relative viability (Shikonin + Vorinostat; first compound 1 µM): 1
- relative viability ([1]; first compound 0.08 µM): 1.01
- relative viability ([1]; first compound 0.253 µM): 1.28
- relative viability ([1]; first compound 0.8 µM): 1.14
- relative viability ([1]; first compound 2.53 µM): 1.2
- relative viability ([1]; first compound 8 µM): 0.99
- relative viability ([2]; first compound 0.08 µM): 0.868
- relative viability ([2]; first compound 0.253 µM): 0.747
- relative viability ([2]; first compound 0.8 µM): 0.84
- relative viability ([2]; first compound 2.53 µM): 0.939
- relative viability ([2]; first compound 8 µM): 0.644

Cell Line: LC-2-ad
- relative viability (Shikonin + AZD7762; first compound 0.01 µM): 0.756
- relative viability (Shikonin + AZD7762; first compound 0.1 µM): 0.919
- relative viability (Shikonin + AZD7762; first compound 0.3162 µM): 0.863
- relative viability (Shikonin + AZD7762; first compound 1 µM): 0.949
- relative viability (Shikonin + Vorinostat; first compound 0.01 µM): 0.696
- relative viability (Shikonin + Vorinostat; first compound 0.1 µM): 0.759
- relative viability (Shikonin + Vorinostat; first compound 0.3162 µM): 0.739
- relative viability (Shikonin + Vorinostat; first compound 1 µM): 0.678
- relative viability ([1]; first compound 0.08 µM): 0.895
- relative viability ([1]; first compound 0.253 µM): 0.9
- relative viability ([1]; first compound 0.8 µM): 0.894
- relative viability ([1]; first compound 2.53 µM): 0.899
- relative viability ([1]; first compound 8 µM): 0.9
- relative viability ([2]; first compound 0.08 µM): 0.442
- relative viability ([2]; first compound 0.253 µM): 0.506
- relative viability ([2]; first compound 0.8 µM): 0.444
- relative viability ([2]; first compound 2.53 µM): 0.445
- relative viability ([2]; first compound 8 µM): 0.407

Cell Line: LCLC-97TM1
- relative viability (Shikonin + AZD7762; first compound 0.01 µM): 0.286
- relative viability (Shikonin + AZD7762; first compound 0.1 µM): 0.188
- relative viability (Shikonin + AZD7762; first compound 0.3162 µM): 0.227
- relative viability (Shikonin + AZD7762; first compound 1 µM): 0.362
- relative viability (Shikonin + Vorinostat; first compound 0.01 µM): 0.872
- relative viability (Shikonin + Vorinostat; first compound 0.1 µM): 0.764
- relative viability (Shikonin + Vorinostat; first compound 0.3162 µM): 1.08
- relative viability (Shikonin + Vorinostat; first compound 1 µM): 0.928
- relative viability ([1]; first compound 0.08 µM): 0.927
- relative viability ([1]; first compound 0.253 µM): 0.821
- relative viability ([1]; first compound 0.8 µM): 1.02
- relative viability ([1]; first compound 2.53 µM): 0.999
- relative viability ([1]; first compound 8 µM): 0.868
- relative viability ([2]; first compound 0.08 µM): 0.405
- relative viability ([2]; first compound 0.8 µM): 0.37
- relative viability ([2]; first compound 2.53 µM): 0.344
- relative viability ([2]; first compound 8 µM): 0.265

Cell Line: NCI-H520
- relative viability (Shikonin + Vorinostat; first compound 0.01 µM): 0.8
- relative viability (Shikonin + Vorinostat; first compound 0.1 µM): 0.718
- relative viability (Shikonin + Vorinostat; first compound 0.3162 µM): 0.717
- relative viability (Shikonin + Vorinostat; first compound 1 µM): 0.681
- relative viability ([1]; first compound 0.08 µM): 0.685
- relative viability ([1]; first compound 0.253 µM): 0.878
- relative viability ([1]; first compound 0.8 µM): 0.644
- relative viability ([1]; first compound 2.53 µM): 0.817
- relative viability ([1]; first compound 8 µM): 0.704
- relative viability ([2]; first compound 0.08 µM): 0.789
- relative viability ([2]; first compound 0.253 µM): 0.548
- relative viability ([2]; first compound 0.8 µM): 0.858
- relative viability ([2]; first compound 2.53 µM): 0.707
- relative viability ([2]; first compound 8 µM): 0.733

Cell Line: NCI-H522
- relative viability (Shikonin + AZD7762; first compound 0.01 µM): 0.912
- relative viability (Shikonin + AZD7762; first compound 0.1 µM): 0.957
- relative viability (Shikonin + AZD7762; first compound 0.3162 µM): 0.864
- relative viability (Shikonin + AZD7762; first compound 1 µM): 0.806
- relative viability (Shikonin + Vorinostat; first compound 0.01 µM): 0.875
- relative viability (Shikonin + Vorinostat; first compound 0.1 µM): 1
- relative viability (Shikonin + Vorinostat; first compound 0.3162 µM): 0.903
- relative viability (Shikonin + Vorinostat; first compound 1 µM): 0.958

Cell Line: NCI-H661
- relative viability (Shikonin + Vorinostat; first compound 0.01 µM): 0.837
- relative viability (Shikonin + Vorinostat; first compound 0.1 µM): 0.833
- relative viability (Shikonin + Vorinostat; first compound 0.3162 µM): 0.812
- relative viability (Shikonin + Vorinostat; first compound 1 µM): 0.736
- relative viability ([1]; first compound 0.08 µM): 1.08
- relative viability ([1]; first compound 0.253 µM): 1.13
- relative viability ([1]; first compound 0.8 µM): 1.09
- relative viability ([1]; first compound 2.53 µM): 1.11
- relative viability ([1]; first compound 8 µM): 1.06
- relative viability ([2]; first compound 0.08 µM): 1.05
- relative viability ([2]; first compound 0.253 µM): 1.15
- relative viability ([2]; first compound 0.8 µM): 1.13
- relative viability ([2]; first compound 2.53 µM): 1.08
- relative viability ([2]; first compound 8 µM): 0.978

Cell Line: NCI-H1299
- relative viability ([1]; first compound 0.08 µM): 1.05
- relative viability ([1]; first compound 0.253 µM): 1.08
- relative viability ([1]; first compound 0.8 µM): 1.08
- relative viability ([1]; first compound 2.53 µM): 1.1
- relative viability ([1]; first compound 8 µM): 1.01
- relative viability ([2]; first compound 0.08 µM): 0.927
- relative viability ([2]; first compound 0.253 µM): 0.941
- relative viability ([2]; first compound 0.8 µM): 0.946
- relative viability ([2]; first compound 2.53 µM): 0.99
- relative viability ([2]; first compound 8 µM): 0.9

Cell Line: NCI-H1395
- relative viability (Shikonin + AZD7762; first compound 0.01 µM): 0.375
- relative viability (Shikonin + AZD7762; first compound 0.1 µM): 0.409
- relative viability (Shikonin + AZD7762; first compound 0.3162 µM): 0.366
- relative viability (Shikonin + AZD7762; first compound 1 µM): 0.448
- relative viability (Shikonin + Vorinostat; first compound 0.01 µM): 0.675
- relative viability (Shikonin + Vorinostat; first compound 0.1 µM): 0.705
- relative viability (Shikonin + Vorinostat; first compound 0.3162 µM): 0.695
- relative viability (Shikonin + Vorinostat; first compound 1 µM): 0.938
- relative viability ([1]; first compound 0.08 µM): 0.957
- relative viability ([1]; first compound 0.253 µM): 0.839
- relative viability ([1]; first compound 0.8 µM): 0.909
- relative viability ([1]; first compound 2.53 µM): 0.967
- relative viability ([1]; first compound 8 µM): 0.853

Cell Line: NCI-H1563
- relative viability ([1]; first compound 0.08 µM): 0.952
- relative viability ([1]; first compound 0.253 µM): 0.975
- relative viability ([1]; first compound 0.8 µM): 0.988
- relative viability ([1]; first compound 2.53 µM): 0.957
- relative viability ([1]; first compound 8 µM): 0.931
- relative viability ([2]; first compound 0.08 µM): 0.813
- relative viability ([2]; first compound 0.253 µM): 0.963
- relative viability ([2]; first compound 0.8 µM): 0.804
- relative viability ([2]; first compound 2.53 µM): 0.812
- relative viability ([2]; first compound 8 µM): 0.82

Cell Line: NCI-H1623
- relative viability ([1]; first compound 0.08 µM): 0.836
- relative viability ([1]; first compound 0.253 µM): 0.952
- relative viability ([1]; first compound 0.8 µM): 0.795
- relative viability ([1]; first compound 2.53 µM): 0.83
- relative viability ([1]; first compound 8 µM): 0.801
